Reference: patent US20170065579A1, “Sustained Release Low Dose Formulations and Uses Thereof” (priority 2015, published 2017)

Columns and labels:
[1] = naltrexone release from payloaded matrices (in vitro release); type: physicochemical; details: in contrast to the hydrochloride form
Protocol: The number of days of release are shown on the horizontal axis (X axis). The cumulative percentage of naltrexone release is shown on the vertical axis (Y axis). […] Release was measured under conditions of about 37 degrees Celsius. Before release was measured, steps had been taken to incorporate (payload) naltrexone into the matrices.
The number of days of release are shown on the horizontal axis (X axis). The cumulative percentage of naltrexone release is shown on the vertical axis (Y axis). Before release was measured, steps had been taken to incorporate (payload) naltrexone into the matrices.
Exemplary Formula #1—PBS Buffer Containing 0.01% Sodium Azide as Suspension and Release Medium: • 1. To a 1 L volumetric flask, add the contents of 1 package of ready-to-use powder for PBS • 2. Add sodium azide ([…]) • 3. Add Millipore water to the calibration mark • 4. Dissolve all solids • 5. Store at 8 degrees celsius (max)

[2] = in vivo, cited from earlier work
[3] = low dosages, about 3-5 mg/day; cited from earlier work
opioid receptor = details: cited from earlier work

Compound | release profiles [1] | oral bioavailability ([2]; po) | duration of effect [2] | symptom severity [3] | potency relative to naloxone (opioid receptor)
O=C1CC[C@@]2(O)[C@H]3Cc4ccc(O)c5c4[C@@]2(CCN3CC2CC2)[C@H]1O5 [naltrexone base, naltrexone] | meet preferred target criteria |  |  |  | 
O=C1CC[C@@]2(O)[C@H]3Cc4ccc(O)c5c4[C@@]2(CCN3CC2CC2)[C@H]1O5 [naltrexone] |  | good oral bioavailability | can last for a day | reduce symptom severity | twice the potency
